pKi: −log10 of the molar value. Where “and” joins values, the source holds several entries; their conditions need not be identical. Equal values may be shown once.
Key:
[1] = target: T1, 5-hydroxytryptamine receptor 1A (Rattus norvegicus, UniProt P19327)
T1 sequence (P19327 whole entry): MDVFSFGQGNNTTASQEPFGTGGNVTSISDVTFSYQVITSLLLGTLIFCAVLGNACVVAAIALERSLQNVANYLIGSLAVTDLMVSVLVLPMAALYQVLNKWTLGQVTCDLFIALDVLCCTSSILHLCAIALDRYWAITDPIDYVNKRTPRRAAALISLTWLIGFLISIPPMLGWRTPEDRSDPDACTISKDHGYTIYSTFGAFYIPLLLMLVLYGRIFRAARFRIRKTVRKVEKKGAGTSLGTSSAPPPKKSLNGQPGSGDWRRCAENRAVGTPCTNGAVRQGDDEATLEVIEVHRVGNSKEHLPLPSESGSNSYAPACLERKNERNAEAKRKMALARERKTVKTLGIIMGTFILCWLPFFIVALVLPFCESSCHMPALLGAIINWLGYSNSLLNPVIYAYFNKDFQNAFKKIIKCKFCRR

[2] = target: 5-hydroxytryptamine receptor 2A (Homo sapiens, UniProt P28223)
[3] = target: 5-hydroxytryptamine receptor 2C (Sus scrofa, UniProt G7ZKZ7)
[4] = target: 5-hydroxytryptamine receptor 1B (Homo sapiens, UniProt P28222)
[5] = target: D(2) dopamine receptor (Homo sapiens, UniProt P14416)
[6] = target: 5-hydroxytryptamine receptor 1D (Homo sapiens, UniProt P28221)
[7] = target: D(1A) dopamine receptor (Homo sapiens, UniProt P21728)
[8] = target: D(3) dopamine receptor (Homo sapiens, UniProt P35462)
[9] = target: 5-hydroxytryptamine receptor 2C (Homo sapiens, UniProt P28335)
[10] = target: T2, Alpha-1A adrenergic receptor (Rattus norvegicus, UniProt P43140)
T2 sequence (P43140 whole entry): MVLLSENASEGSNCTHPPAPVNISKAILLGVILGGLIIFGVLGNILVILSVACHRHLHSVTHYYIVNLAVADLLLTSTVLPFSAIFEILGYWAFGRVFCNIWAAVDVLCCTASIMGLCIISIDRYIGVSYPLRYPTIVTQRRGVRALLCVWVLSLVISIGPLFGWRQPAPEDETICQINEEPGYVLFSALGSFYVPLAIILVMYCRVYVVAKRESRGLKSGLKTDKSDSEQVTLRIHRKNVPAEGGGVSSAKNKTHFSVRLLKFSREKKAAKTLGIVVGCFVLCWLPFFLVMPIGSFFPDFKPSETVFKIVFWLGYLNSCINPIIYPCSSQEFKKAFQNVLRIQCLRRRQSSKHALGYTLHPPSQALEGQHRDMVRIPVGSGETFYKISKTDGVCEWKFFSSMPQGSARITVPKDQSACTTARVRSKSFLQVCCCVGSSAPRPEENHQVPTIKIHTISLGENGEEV

[11] = target: T3, Alpha-2A adrenergic receptor [16-465] (Rattus norvegicus, UniProt P22909)
T3 construct: 16-465
T3 sequence (P22909 whole entry): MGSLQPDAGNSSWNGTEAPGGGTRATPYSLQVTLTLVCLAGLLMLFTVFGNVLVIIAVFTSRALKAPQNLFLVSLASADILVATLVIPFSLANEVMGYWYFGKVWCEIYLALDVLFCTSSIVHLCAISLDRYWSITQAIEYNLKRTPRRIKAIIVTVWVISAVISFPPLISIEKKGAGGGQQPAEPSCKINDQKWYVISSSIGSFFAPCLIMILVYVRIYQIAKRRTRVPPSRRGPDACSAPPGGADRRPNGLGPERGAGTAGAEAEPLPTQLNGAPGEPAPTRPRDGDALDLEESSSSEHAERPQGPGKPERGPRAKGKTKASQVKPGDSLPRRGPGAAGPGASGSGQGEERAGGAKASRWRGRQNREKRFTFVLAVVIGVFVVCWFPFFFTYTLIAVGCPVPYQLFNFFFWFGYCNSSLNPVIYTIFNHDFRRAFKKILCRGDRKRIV

[12] = target: 5-hydroxytryptamine receptor 2B (Homo sapiens, UniProt P41595)
[13] = target: D(2) dopamine receptor (Rattus norvegicus, UniProt P61169)
[14] = target: Sigma non-opioid intracellular receptor 1 (Cavia porcellus, UniProt Q60492)
[15] = target: 5-hydroxytryptamine receptor 2A (Rattus norvegicus, UniProt P14842)
[16] = target: D(1B) dopamine receptor (Homo sapiens, UniProt P21918)
[17] = target: T4, D(4) dopamine receptor (Homo sapiens, UniProt P21917)
T4 sequence (P21917 whole entry): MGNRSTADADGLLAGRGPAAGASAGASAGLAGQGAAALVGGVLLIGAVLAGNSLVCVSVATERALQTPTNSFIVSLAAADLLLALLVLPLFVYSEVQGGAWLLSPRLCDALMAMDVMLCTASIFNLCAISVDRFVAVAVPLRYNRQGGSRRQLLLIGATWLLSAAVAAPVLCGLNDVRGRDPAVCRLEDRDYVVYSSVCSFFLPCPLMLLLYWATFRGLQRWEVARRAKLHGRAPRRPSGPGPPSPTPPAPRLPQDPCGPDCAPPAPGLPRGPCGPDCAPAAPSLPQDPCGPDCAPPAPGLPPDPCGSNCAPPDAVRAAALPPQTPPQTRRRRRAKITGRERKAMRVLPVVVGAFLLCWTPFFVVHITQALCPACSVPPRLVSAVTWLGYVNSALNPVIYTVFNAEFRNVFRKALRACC

[18] = target: D(1A) dopamine receptor (Rattus norvegicus, UniProt P18901)
[19] = target: 5-hydroxytryptamine receptor 1A (Homo sapiens, UniProt P08908)
[20] = target: Muscarinic acetylcholine receptor M1 (Homo sapiens, UniProt P11229)
[21] = target: 5-hydroxytryptamine receptor 1B (Cavia porcellus, UniProt O08892)
[22] = target: 5-hydroxytryptamine receptor 3A (Homo sapiens, UniProt P46098)

Sequence of 5-hydroxytryptamine receptor 1D (P28221 whole entry): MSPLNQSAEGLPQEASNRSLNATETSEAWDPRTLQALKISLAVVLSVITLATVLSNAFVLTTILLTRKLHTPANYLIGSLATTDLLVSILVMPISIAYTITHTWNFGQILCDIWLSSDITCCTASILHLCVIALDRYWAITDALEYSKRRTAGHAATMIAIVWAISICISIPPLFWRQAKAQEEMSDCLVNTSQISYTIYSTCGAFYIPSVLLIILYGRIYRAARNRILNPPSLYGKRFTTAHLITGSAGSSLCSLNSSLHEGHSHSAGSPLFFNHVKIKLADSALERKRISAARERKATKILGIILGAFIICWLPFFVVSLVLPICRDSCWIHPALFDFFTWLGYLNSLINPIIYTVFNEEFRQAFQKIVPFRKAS
Sequence of 5-hydroxytryptamine receptor 2B (P41595 whole entry): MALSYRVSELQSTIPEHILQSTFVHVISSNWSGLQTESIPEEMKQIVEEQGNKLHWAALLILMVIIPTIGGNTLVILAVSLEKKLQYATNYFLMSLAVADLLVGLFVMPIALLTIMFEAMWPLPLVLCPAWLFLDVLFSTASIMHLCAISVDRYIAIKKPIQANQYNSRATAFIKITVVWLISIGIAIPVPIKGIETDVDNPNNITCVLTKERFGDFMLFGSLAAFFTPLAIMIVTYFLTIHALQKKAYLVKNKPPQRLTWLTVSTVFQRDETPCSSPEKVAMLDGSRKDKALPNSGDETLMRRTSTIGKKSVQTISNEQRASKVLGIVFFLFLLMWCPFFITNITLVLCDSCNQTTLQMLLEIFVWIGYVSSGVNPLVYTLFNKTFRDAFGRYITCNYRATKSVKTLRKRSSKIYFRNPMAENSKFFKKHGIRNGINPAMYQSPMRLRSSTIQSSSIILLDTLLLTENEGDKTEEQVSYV
Sequence of D(2) dopamine receptor (Rattus norvegicus, UniProt P61169) (P61169 whole entry): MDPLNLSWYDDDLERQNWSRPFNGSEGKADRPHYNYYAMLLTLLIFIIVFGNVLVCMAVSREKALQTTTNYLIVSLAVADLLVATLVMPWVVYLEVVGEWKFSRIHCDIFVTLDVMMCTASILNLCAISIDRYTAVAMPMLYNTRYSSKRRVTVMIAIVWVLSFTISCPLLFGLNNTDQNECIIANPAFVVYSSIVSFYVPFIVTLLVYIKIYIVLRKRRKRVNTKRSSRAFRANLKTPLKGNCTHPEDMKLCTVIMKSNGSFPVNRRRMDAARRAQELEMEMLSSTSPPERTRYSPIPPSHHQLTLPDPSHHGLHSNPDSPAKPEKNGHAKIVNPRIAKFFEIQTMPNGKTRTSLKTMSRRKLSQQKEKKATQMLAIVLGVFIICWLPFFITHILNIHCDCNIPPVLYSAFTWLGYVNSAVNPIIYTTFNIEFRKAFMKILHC
Sequence of 5-hydroxytryptamine receptor 2A (Rattus norvegicus, UniProt P14842) (P14842 whole entry): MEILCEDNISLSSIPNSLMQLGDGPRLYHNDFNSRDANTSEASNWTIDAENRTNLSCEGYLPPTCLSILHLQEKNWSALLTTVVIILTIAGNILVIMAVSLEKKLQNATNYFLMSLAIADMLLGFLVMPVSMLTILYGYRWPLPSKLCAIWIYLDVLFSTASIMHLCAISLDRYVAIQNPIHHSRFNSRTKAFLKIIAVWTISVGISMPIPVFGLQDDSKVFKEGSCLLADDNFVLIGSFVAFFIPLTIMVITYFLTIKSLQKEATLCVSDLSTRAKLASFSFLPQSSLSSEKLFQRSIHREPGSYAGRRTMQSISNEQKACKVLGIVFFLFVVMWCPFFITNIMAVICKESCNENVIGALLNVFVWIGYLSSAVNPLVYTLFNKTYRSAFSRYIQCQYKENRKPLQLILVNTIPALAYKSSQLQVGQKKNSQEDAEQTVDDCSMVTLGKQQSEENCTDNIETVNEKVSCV
Sequence of D(1B) dopamine receptor (P21918 whole entry): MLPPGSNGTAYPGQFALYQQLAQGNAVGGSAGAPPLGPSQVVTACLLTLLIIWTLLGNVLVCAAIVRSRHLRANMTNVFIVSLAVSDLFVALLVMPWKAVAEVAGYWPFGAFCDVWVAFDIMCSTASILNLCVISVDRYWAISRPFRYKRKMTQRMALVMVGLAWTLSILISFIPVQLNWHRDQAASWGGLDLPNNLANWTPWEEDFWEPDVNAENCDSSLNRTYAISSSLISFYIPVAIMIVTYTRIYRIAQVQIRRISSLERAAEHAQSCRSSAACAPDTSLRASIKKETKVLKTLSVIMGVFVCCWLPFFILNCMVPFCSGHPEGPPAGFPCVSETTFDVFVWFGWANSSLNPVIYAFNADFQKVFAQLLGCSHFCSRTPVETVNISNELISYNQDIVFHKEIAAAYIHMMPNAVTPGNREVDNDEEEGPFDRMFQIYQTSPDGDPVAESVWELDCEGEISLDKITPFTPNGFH
Sequence of D(3) dopamine receptor (P35462 as listed by the source): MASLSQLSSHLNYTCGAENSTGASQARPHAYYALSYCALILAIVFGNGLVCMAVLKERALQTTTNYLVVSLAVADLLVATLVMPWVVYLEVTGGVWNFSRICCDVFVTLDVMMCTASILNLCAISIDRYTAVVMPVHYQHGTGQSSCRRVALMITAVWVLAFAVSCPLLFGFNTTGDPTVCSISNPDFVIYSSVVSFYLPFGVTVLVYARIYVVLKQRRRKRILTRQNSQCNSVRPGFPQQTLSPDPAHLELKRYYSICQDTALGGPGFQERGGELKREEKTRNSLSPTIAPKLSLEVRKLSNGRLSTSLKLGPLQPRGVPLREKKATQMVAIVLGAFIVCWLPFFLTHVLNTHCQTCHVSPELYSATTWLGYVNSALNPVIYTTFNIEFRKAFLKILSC
Sequence of D(2) dopamine receptor (Homo sapiens, UniProt P14416) (P14416 whole entry): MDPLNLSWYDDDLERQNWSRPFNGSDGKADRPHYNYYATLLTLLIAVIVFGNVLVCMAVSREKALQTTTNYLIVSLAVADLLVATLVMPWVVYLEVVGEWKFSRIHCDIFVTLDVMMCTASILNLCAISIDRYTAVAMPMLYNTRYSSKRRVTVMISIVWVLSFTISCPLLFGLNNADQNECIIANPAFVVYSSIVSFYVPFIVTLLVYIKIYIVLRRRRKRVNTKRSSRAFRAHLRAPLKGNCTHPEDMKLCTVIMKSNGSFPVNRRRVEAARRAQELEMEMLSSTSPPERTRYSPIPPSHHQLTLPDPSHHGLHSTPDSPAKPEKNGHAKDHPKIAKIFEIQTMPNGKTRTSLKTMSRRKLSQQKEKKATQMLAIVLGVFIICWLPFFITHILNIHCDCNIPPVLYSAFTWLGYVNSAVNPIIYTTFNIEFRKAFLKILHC
Sequence of 5-hydroxytryptamine receptor 1B (Homo sapiens, UniProt P28222) (P28222 whole entry): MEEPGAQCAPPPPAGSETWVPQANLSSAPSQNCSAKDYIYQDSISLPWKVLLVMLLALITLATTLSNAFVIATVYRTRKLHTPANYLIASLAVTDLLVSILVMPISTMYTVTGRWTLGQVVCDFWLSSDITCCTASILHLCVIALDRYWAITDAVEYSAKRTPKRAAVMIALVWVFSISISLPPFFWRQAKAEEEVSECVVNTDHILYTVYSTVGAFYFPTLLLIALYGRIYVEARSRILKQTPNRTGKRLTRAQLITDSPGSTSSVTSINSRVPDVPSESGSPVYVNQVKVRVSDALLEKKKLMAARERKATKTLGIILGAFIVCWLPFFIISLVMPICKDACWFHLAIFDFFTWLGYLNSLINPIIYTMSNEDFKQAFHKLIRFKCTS
Sequence of 5-hydroxytryptamine receptor 2C (Sus scrofa, UniProt G7ZKZ7) (G7ZKZ7 whole entry): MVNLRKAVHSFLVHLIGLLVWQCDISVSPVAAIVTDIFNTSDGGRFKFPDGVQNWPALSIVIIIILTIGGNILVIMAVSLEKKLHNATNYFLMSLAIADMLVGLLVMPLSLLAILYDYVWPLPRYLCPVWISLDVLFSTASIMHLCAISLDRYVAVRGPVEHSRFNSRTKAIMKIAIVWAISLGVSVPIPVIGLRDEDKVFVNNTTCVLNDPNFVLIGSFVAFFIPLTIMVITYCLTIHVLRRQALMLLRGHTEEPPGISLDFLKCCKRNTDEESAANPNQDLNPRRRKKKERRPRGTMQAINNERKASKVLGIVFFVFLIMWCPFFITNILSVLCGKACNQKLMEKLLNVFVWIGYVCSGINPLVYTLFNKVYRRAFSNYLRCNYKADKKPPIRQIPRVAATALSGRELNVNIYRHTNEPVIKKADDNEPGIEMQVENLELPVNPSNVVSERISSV
Sequence of D(1A) dopamine receptor (Homo sapiens, UniProt P21728) (P21728 whole entry): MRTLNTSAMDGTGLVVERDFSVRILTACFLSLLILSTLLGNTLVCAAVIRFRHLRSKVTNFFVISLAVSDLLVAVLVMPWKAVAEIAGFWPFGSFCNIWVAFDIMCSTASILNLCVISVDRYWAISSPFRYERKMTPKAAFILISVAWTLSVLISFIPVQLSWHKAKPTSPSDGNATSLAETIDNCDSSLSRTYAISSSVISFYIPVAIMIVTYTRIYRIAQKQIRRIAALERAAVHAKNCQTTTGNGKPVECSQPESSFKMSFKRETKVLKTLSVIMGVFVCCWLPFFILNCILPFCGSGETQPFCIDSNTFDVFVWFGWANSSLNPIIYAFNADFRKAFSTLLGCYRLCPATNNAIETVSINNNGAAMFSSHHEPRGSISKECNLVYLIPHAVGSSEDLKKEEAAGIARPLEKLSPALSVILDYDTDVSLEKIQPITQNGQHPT
Sequence of 5-hydroxytryptamine receptor 2C (Homo sapiens, UniProt P28335) (P28335 whole entry): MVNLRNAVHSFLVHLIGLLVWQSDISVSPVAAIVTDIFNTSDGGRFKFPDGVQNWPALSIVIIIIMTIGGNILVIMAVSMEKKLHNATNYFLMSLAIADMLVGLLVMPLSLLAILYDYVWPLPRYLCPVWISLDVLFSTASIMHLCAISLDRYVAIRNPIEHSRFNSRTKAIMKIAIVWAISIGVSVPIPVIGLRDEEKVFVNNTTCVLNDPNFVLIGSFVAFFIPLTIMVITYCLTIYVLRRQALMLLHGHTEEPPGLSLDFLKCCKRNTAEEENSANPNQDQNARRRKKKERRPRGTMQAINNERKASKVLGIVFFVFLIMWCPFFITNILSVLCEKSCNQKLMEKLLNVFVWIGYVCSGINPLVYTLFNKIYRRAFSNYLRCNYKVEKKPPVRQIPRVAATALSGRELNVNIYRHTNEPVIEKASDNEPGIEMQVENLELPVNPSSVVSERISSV

| SMILES | pKi [1] | pKi [2] | pKi [3] | pKi [4] | pKi [5] | pKi [6] | pKi [7] | pKi [8] | pKi [9] | pKi [10] | pKi [11] | pKi [12] | pKi [13] | pKi [14] | pKi [15] | pKi [16] | pKi [17] | also measured |
| --- | --- | --- | --- | --- | --- | --- | --- | --- | --- | --- | --- | --- | --- | --- | --- | --- | --- | --- |
| CCCN(CCC)C1CCc2cc(CS(=O)(=O)c3ccc(OC)cc3)ccc2C1 (stereo not given) [GR218231] | 6.30 | 6.00 | 6.00 | 6.00 | 7.20 and 6.86 | 6.00 | 6.00 | 9.00 and 8.87 | 6.00 | 6.00 | 6.40 | 6.00 | 7.10 | 6.80 | 6.00 | 6.00 | < 5.00 |  |
| OC1(c2ccc(Cl)cc2)CCN(Cc2c[nH]c3ccccc23)CC1 [L741,626] | 5.40 |  | 5.40 | 6.00 |  | 6.00 |  | 7.20 and 7.06 |  | 6.60 | 5.90 | 6.20 | 8.20 |  | 6.00 | 6.20 | 6.50 |  |
| N#Cc1ccc2c(c1)[C@H]1CN(CCCCNC(=O)c3ccc(-c4ccccc4)cc3)C[C@@H]1CO2 [S33084] | 6.90 | 6.00 |  | 6.10 | 7.28 | 6.90 | 6.30 | 9.60 and 9.40 | 7.10 | 6.90 | 6.00 | 6.80 | 7.30 | 6.00 | 6.00 | 5.90 | 5.70 | pKi [18]: 6.00; pKi [19]: 6.00; pKi [20]: 6.40; pKi [21]: 6.00; pKi [22]: 6.00 |

From BindingDB's records for PubMed 10869410 (Centre De Recherches De Croissy, 2000)
